The values below come from patent publication US20260071252A1, “REVERSIBLE NANOPARTICLE AGGREGATES AND METHODS FOR DETECTING PROTEASES” (The Regents of the University of California, priority 2022, published 2026).

Data set [1] can be described thus: Dissociation efficiency of HS-PEG6-OCH3 for alternative assembly conditions or coating ligands. The conditions noted are these: high concentration (>100 μM) of HS-PEG6-OCH3.
Experimental: First, peptide-free conditions were used to promote the assembly of AuNPs-citrate and its dissociation with HS-PEG6-OCH3 was evaluated (FIG. 3A). Here, salts were added to AuNPs-citrate to induce aggregation via disruption of the electrostatic repulsion forces between the particles. […] Unlike the peptide Arg-Arg, these ions cannot sterically prevent the AuNPs from falling in an irreversible aggregated state.
AuNPs with different coating ligands were also evaluated and compared to citrate: bis(p-sulfonatophenyl)phenylphosphine (BSPP), mercaptobenzoic acid (MBA), or thiolated PEG-COOH (HS-PEG-COOH; Mw=634 g·mol^−1). […] This is because MBA and HS-PEG-COOH make covalent Au—S bonds with the gold surface that prevent subsequent grafting of HS-PEG6-OCH3.
Finally, an alternative control peptide was used for assembly (Cys-Arg-Lys).
Data set [2] can be described thus: Dissociation of Arg-Arg-AuNPs assemblies with HS-PEGs (UV-Vis percentage of dissociation, MANTA size). An excerpt:
Dissociation of the AuNPs assemblies. […] HS-PEG6-OCH3 was chosen because its grafting on AuNPs ensure a high colloidal stability of these latter. Indeed, the grafting of thiolated PEGs has been widely reported in the literature via the formation of a strong Au—S bond conferring to the particles a high colloidal stability due to a combination of hydrophilicity and steric hindrance.^30-32 The Au—S bond being stronger than the arginine-citrate, arginine-gold or even citrate-gold interactions, […] was expected to be capable of progressively replacing the arginine/citrate layers at the gold surface, disrupting the electrostatic network, and eventually dispersing the AuNPs (Scheme 1). Briefly, aqueous suspensions Arg-Arg-AuNPs assemblies were exposed to increasing concentrations of HS-PEG6-OCH3, and the dissociation of the assemblies was characterized by TEM, MANTA, FTIR and UV-Vis spectroscopies (FIG. 2).
The presence of a PEG layer around the AuNPs explains the difference in the hydrodynamic diameter versus the initial AuNPs-citrate (48±32 nm vs 40±25 nm). Remarkably, the LSPR band of the dissociated AuNPs was identical to the AuNPs-citrate: The color of the sample returned to its initial bright red color. […] For the remainder of this study, the efficiency of the dissociation will be characterized by the percentage of dissociation (%) as measured by UV-Vis spectroscopy (comparison between the LSPR band after dissociation versus that from AuNPs-citrate). See the experimental section in the supporting information for more details. […] This finding is particularly interesting because the typical grafting density of HS-PEG6-OCH3 on dispersed AuNPs is reported to be between 3.5 and 4 HS-PEG6-OCH3/nm^2.^33 This implies that no excess of HS-PEGs was needed to dissociate the entire assembly-only enough to cover all the gold surface. It is worth noting that the kinetics of the dissociation was almost instantaneous (equilibrium reached within a minute) (FIG. 14). A video of the dissociation of the AuNPs assemblies is available online.
Dissociation. Stock solutions of the different HS-PEGs with concentrations ranging from 10 μM to 1 mM were prepared. Specific volumes of each solution were added to a 96-well plate in order to reach the desired final HS-PEGs concentration and then 100 μL of Arg-Arg-AuNPs were added. For complex matrices experiments, the Arg-Arg-AuNPs were first concentrated 10 times by centrifugation and then dispersed in complex media (sea water, pooled human saliva, plasma, urine, bile or HEK cell lysates) that represented thus 90% of the total volume except for bile, which was only 20%. Quickly after the addition of AuNPs, the dissociation of the assembly was monitored and the ratio of the absorbances at 520 nm and 700 nm was recorded over time. The percentage of dissociation is described as follows:
The optical absorption measurements were collected using a hybrid multi-mode microplate reader (Synergy™ H1 model, BioTek Instruments, Inc.) in a 96-well plate. The dissociation of assembly was characterized by measuring the ratio of the absorbance at 520 nm or 530 nm and 700 nm or 820 nm for 20 nm NPs or 40 nm NPs, respectively.
The multispectral advanced nanoparticle tracking analysis (MANTA) is a technique that builds images from the particles' light scattering via three lasers of different wavelengths (for example, blue, green, and red); the wavelength of scattering depends on nanoparticle size. Thus, small particles (less than, or <, 100 nm) appear blue while larger particles appear greener or redder. MANTA uses these images to count the nanoparticles and calculate their size based on Brownian motion. […] 3000™ (Horiba Scientific, USA). The temperature was set to 25° C. during the measurement. Automated noise analysis determines the optimal wavelength for representing each nanoparticle. Here, 8-bit composite videos were generated, and 10 videos were used per analysis (300 frames for seconds).

Data set [3] has as its target SARS-CoV-2 main protease (Mpro) (Severe acute respiratory syndrome coronavirus 2, UniProt P0DTD1).
A short description of data set [4]: Dissociation of AgNP aggregates by A18 fragments released by Mpro cleavage. The conditions noted are these: AgNPs 20 nm, color from blue to yellow.
Data set [5] relates to T1, HS-PEG-RRKRRKRRK conjugate.
T1 sequence: RRKRRKRRK

The test system of a further data set is T2, HS-PEG-RRK conjugate.
T2 sequence: RRK

Another data set concerns T3, HS-PEG-RRKRRK conjugate.
T3 sequence: RRKRRK

The subject of a further data set is T4, HS-PEG-TSG conjugate.
T4 sequence: TSG

Another data set relates to trypsin. In words: Trypsin sensing with HS-PEG-peptide conjugates and Arg-Arg-AuNPs assemblies. Format: biochemical. The protocol: Peptides containing the motif Arg-Arg-Lys (RRK) were thus conjugated to a thiolated PEG capped with a carboxyl group (HS-PEG12-COOH, Mw=634 Da) via EDC/NHS cross-linking reaction. Three peptides based on the motif RRK were investigated and the number of RRK repetitions varied from 1 to 3 to increase the mass and charge of the resulting HS-PEG-peptide conjugate (FIG. 6A).
From concentrations of 10 μM, HS-PEG12-COOH is capable to dissociate 100% of the assemblies (FIG. 21). However, the conjugation of the peptides to the HS-PEG12-COOH was expected to decrease its capacity to dissociate the assemblies as it increases its size and charge. In this context, the addition of the HS-PEG-peptide conjugates to AuNPs assemblies could not generate a colorimetric signal. However, in the presence of trypsin, the proteolytic cleavage could progressively remove the amino acids residues from the conjugate, thus reducing its size and charge that would restore the dissociation capacity. A colorimetric signal, proportional to the trypsin activity, could thus be observed (FIG. 6B).
Typically, 1 mL of HS-PEG12-COOH (HS—(CH2CH2O)12—CH2CH2COOH, 634 Da, 1 mM) dissolved in MES buffer (10 mM, pH=5.5) was activated via the addition of 100 μL of EDC (50 mM, MES) and 40 μL of NHS (500 mM, MES). The reaction was stirred at room temperature for one hour. After one hour, 1 mL of peptide (or NH2-molecule) (1 mM) dissolved in PBS (100 mM, pH=7.4) was added to the activated HS-PEG12-COOH. The reaction was stirred for 4 hours at room temperature and then stored at 4° C.
Typically, 5 μL of the PEG-peptide conjugate (0.44 mM) were added to 5 μL of PBS 1×. […] At the end of the incubation, 100 μL of aggregated AuNPs (Arg-Arg-AuNPs) were added, and a color change proportional to the trypsin concentration was observed. UV-Vis spectra were recorded 30 minutes later.

Another data set concerns trypsin activity. In words: Detection of trypsin activity in vivo with photoacoustic imaging, gold nanorods assemblies. The conditions noted are these: mouse model.

Where no end group is shown, it is not given here.

With `COCCOCCOCCOCCOCCOCCOCCS` [HS-PEG6-OCH3, 0-(2-mercaptoethyl)-O′-methyl-hexa(ethylene glycol)], the “dissociation of the assembly by HS-PEG6-OCH3” value in data set [1] is on record as “could not dissociate the assemblies”. Also, the “size of the aggregates (MANTA)” value in data set [2] (2 μM HS-PEG6-OCH3, 10 minutes, from 467±120 nm) came to 167±112 nm. Further, the figures for the “average size of the aggregates (MANTA)” value in data set [2] (4 μM HS-PEG6-OCH3) and in data set [2] (8 μM HS-PEG6-OCH3) were 136±85 nm and 124±75 nm, respectively. Further, the “dissociation in complex matrices” value in data set [2] (10 μM HS-PEG6-OCH3, plasma, urine, saliva, bile, HEK 293 cell lysates, sea water, matrix at least 90% of volume) was “At least 80%”. Further, in data set [2] (12 μM HS-PEG6-OCH3, LSPR band identical to AuNPs-citrate), the aggregates dissociated came to 100%. For the same molecule, in data set [2] (12 μM HS-PEG6-OCH3 and above), the “mean size (MANTA)” value is given as 48±25 nm.
“CGGKKEEAVLQ [A18 fragment, fragment of A18 released by Mpro cleavage]”: in data set [3], the CDC was 40 µM, the “size of AuNP aggregates after dissociation” value is 26±0.30 nm, the “surface charge after dissociation” value was −27±0.95 mV and the time for dissociation is recorded as at most 10 min. Besides, the “dissociation of AgNP aggregates” value in data set [4] is “could dissociate AgNP aggregates”.
As to trypsin, the “dissociation capacity for Arg-Arg-AuNPs after trypsin digestion” value was “the dissociation capacity of HS-PEG-RRKRRK (SEQ ID NO:13) and HS-PEG-[..] (SEQ ID NO:14) was restored” in [5]; “HS-PEG-RRK was also enhanced” with HS-PEG-RRK conjugate; “the dissociation capacity of HS-PEG-RRKRRK (SEQ ID NO:13) and HS-PEG-[..] (SEQ ID NO:14) was restored” in the data set with HS-PEG-RRKRRK conjugate; “It is not impacted by the digestion by trypsin” in the data set on HS-PEG-TSG conjugate.
Regarding “HS-PEG-RRKRRK: HS-PEG12-COOH conjugated to peptide RRKRRK via EDC/NHS; mixture of single and multiple conjugations (also: HS-PEG12 conjugated via EDC/NHS, site not given here, mixture of single and multiple conjugations)”, the “dissociation capacity of the intact conjugate” value with trypsin (titrated to Arg-Arg-AuNPs, up to >100 μM, no trypsin) was “total quenching of the dissociation capacity”. Moreover, in the data set with trypsin (trypsin 10 μM, 37° C., 24 h), the “dissociation capacity after digestion with trypsin” value was “restored”. Also, the “limit of detection of trypsin” value in the data set with trypsin (visual detection) is given as “picomolar”. Moreover, the photoacoustic signal result with trypsin activity is recorded as “increase of photoacoustic signal”.
